{"source": "patent US8293240B2", "about": "“Method of treating drug-resistant cancer” (The Regents of the University of Colorado, priority 2004, dated 2012)", "key": {"B16F1 melanoma cells": {"test_system": "B16F1 melanoma cells", "assay": "intracellular reactive intermediates (DCFDA) in B16F1 melanoma cells", "assay_type": "cell-based, mouse", "conditions": "B16F1, 48 hours, FIG. 19", "experimental": "Metabolic Activity Assay. Cells were prepared as previously described. The specific metabolic dye was added and mixed into the cell suspension. This plate was then placed into the 37° incubator for a 20-minute incubation. After incubation, the cells were centrifuged at 300×g for 5 minutes, and the supernatant was removed. The cells were then washed once with PBS/2.5% FBS and transferred into flow cytometric tubes containing 500 μL of PBS/2.5% FBS for analysis.\n5-(and -6)-Chloromethyl-2′,7′-dichlorodihydrofluorescein diacetate (CMH2DCFDA) (Molecular Probes). One vial of DCFda provides 10 tests and contains 50 μg. This is unstable and can't be stored. Therefore, each vial was opened and 43 μL of DMSO was added. […]\nB16F1 melanoma cells were cultured at a concentration of 0.5 to 1 million cells per ml. Cells were harvested and analyzed by flow cytometry. […] Five thousand cells were assessed for forward scatter (FS), as a function of cell size, versus side scatter (SS), as a function of cellular granularity. […]\nB16F1 melanoma cells of Example 12 were untreated or treated with etomoxir at the indicated concentrations for 48 hours. Cells were harvested, stained with DCFDA as described in Materials and Methods, and analyzed by flow cytometry. The value of DCFDA was then calculated as described in Materials and Methods."}, "[1]": {"test_system": "human leukemia HL60 cells", "assay": "DCFDA staining, HL60", "assay_type": "cell-based", "conditions": "HL60, 24 hours of incubation, FIG. 14", "experimental": "Flow Cytometry. Cells were harvested, counted, and resuspended at 10^6 cells/100 μl of PBS containing 2.5% fetal calf serum in preparation for flow cytometric analysis. Cells were stained for intracellular H202 using 6-carboxy-2′,7′-dichlorodihydrofluorescein diacetate (DCF-DA, Molecular Probes, Eugene, Oreg.). Briefly, cells were incubated at 37° with 1 mM DCF-DA for 20 minutes, washed twice in PBS containing 2.5% fetal calf serum and analyzed flow cytometrically. Mitochondrial membrane potential was assessed using Mitotracker Red (CM-H2XROS, Molecular Probes, Eugene, Oreg.). The cells were resuspended in PBS containing 2.5% fetal calf serum containing a final concentration of 0.5 micromolar Mitotracker dye. The cells were incubated at 37° for 20 minutes, washed twice in PBS containing 2.5% fetal calf serum and analyzed flow cytometrically. Data were acquired on a Coulter Elite Epics or Excel flow cytometer (Coulter, Hialeah, Fla.) and analyzed with CellQuest software, (Becton Dickinson, San Jose, Calif.). […] Each sample population was classified for cell size (forward scatter) and complexity (side scatter), gated on a population of interest and evaluated using 5,000 cells. […]\nThe effects of etomoxir on human leukemia HL60 cells was determined. […]"}}, "data": [{"smiles": "CCOC(=O)C1(CCCCCCOc2ccc(Cl)cc2)CO1", "note": "(centres unmarked) [etomoxir, 2-(6-(4-chlorophenoxy)-hexyl)-oxirane-2-carboxylic acid ethyl ester]", "values": [{"measurement": "reactive oxygen species as measured by DCFDA", "setting": "B16F1 melanoma cells", "value": "dose dependent increase"}, {"measurement": "reactive oxygen intermediates, DCFDA staining", "setting": "[1]", "value": "increases in reactive oxygen intermediates"}]}]}
